Data published in patent US20100130620A1, “NOVEL USE OF HYDROXYTYROSOL AND OLIVE EXTRACTS/CONCENTRATES CONTAINING IT” (priority 2007, published 2010).

How the values were obtained:
[1] = tested on: human ARPE-19 cells; format: cell-based
Protocol: (§1) The human ARPE-19 cells (a human retinal pigment epithelial cell-line) were maintained in DMEM-F12 medium (Dulbecco's modified Eagle's medium) supplemented with 10% fetal bovine serum, 0.348% sodium bicarbonate, 2 mM L-glutamine, 100 U/mL penicillin and 100 μg/ml streptomycin. Cell cultures were maintained at 37° C. in a humidified atmosphere of 95% air and 5% CO2. The medium was changed every 3 to 4 days. ARPE-19 cells were used within 10 generations.
All experiments were performed with an 80% confluence monolayer grown in 96-well plates or 6 well plates. Hydroxytyrosol (HTS) was dissolved in DMSO (dimethyl sulfoxide). Acrolein was dissolved in PBS (phosphate buffer salt) each time immediately before an experiment. For the acute toxicity study, cells were exposed to acrolein for 24 hours. The protective effects of HTS (Hydroxytyrosol) were studied with the acute toxicity model by pre-treating cells with HTS for 48 hours or for 7 days.
The MTT assay reduction assay was used as a […] index of cell viability. The optical densities were read at 555 nm using a microplate spectrophotometer (Spectra Max 340, Molecular Dabices, Sunnyvale, Calif.). Absorbance values were normalized with untreated cells to calculate the changes in cell viability.
The ARPE-19 cells were seeded at 4×10^4 per well in a 96 well plate. […]

[2] = tested on: ARPE-19 cells; assay: JC-1 assay for mitochondrial membrane potential; format: cell-based, human; conditions: 10-100 μM HTS, no acrolein
Protocol: as §1
All experiments were performed with an 80% confluence monolayer grown in 96-well plates or 6 well plates. Hydroxytyrosol (HTS) was dissolved in DMSO (dimethyl sulfoxide). Acrolein was dissolved in PBS (phosphate buffer salt) each time immediately before an experiment. For the acute toxicity study, cells were exposed to acrolein for 24 hours. […]
Mitochondrial potential change (ΔΨ) was assessed in live APRE-19 cells using the lipophilic cationic probe 5,5′,6,6′-tetrachloro-1,1′,3,3′-tetraethylbenzimidazol-carbocyanine iodine (JC-1). For quantitative fluorescence measurement, cells were rinsed once after JC-1 staining and scanned with a multi-label counter (Wallac 1420; PerkinElmer Life Sciences, Wellesley, Mass.) at 485 nm excitation and 535 nm and 590 nm emission, to measure green and red JC-1 fluorescence respectively. […]

## OCCc1ccc(O)c(O)c1 [HTS, 3,4-dihydroxyphenyl ethanol]
[1]; 10-100 μM HTS, ARPE-19, no acrolein, FIG. 1
  effect of HTS itself on cell viability: no apparent effect on cell viability
[1]; pretreatment, 75 μM acrolein 24 hours
  HTS concentration range protecting against acute acrolein-induced decrease in cell viability: 10 to 20 µM
[2]
  effect of HTS itself on mitochondrial membrane potential: no apparent effect on mitochondrial membrane potential
